According to ChEMBL document CHEMBL5620387, “Discovery of 4'-trifluoromethylchalcones as novel, potent and selective hCYP1B1 inhibitors without concomitant AhR activation” (Eur J Med Chem, 2023):

Assays:
Cytochrome P450 1A2 [1] = target: T1, Cytochrome P450 1A2 (Homo sapiens, UniProt P05177); test: Inhibition of human recombinant CYP1A2 assessed as fluorescence of resorufin; format: ADME
T1 sequence (P05177 whole entry): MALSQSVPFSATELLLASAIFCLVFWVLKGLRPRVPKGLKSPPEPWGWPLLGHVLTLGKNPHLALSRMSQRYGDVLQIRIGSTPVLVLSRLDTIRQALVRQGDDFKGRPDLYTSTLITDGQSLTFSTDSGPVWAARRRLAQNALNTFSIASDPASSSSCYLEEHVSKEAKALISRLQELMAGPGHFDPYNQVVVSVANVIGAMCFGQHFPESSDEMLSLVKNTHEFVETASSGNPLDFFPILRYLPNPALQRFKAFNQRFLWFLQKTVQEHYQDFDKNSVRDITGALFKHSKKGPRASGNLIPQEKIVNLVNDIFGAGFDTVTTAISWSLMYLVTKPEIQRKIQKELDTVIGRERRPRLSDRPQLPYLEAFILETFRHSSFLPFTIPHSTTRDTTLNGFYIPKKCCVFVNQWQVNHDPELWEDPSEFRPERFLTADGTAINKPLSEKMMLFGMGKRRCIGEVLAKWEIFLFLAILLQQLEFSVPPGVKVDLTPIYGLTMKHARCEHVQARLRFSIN

Cytochrome P450 1B1 = target: T2, Cytochrome P450 1B1 (Homo sapiens, UniProt Q16678); test: Inhibition of human recombinant CYP1B1 assessed as fluorescence of resorufin
T2 sequence (Q16678 whole entry): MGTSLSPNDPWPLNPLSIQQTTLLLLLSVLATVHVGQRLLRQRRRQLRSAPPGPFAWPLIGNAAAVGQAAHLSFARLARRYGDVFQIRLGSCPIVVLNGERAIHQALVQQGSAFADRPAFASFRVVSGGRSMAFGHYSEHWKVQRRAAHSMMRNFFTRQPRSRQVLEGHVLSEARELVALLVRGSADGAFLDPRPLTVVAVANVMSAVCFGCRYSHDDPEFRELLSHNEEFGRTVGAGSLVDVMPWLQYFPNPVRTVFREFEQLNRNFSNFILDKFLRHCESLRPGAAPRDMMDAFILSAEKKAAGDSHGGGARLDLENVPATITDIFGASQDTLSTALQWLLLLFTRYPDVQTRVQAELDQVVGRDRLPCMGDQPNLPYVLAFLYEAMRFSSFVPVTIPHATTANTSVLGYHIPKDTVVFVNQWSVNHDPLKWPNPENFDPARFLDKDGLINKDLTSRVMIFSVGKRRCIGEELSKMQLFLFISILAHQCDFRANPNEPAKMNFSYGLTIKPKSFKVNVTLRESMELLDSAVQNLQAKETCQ

[2] = Metabolic stability in human liver microsomes assessed as relative remaining concentration measured after 60 mins by LC-UV analysis; format: ADME, Microsome; conditions: read-out: INH
[3] = Metabolic stability in human liver microsomes assessed as half life measured after 60 mins by LC-UV analysis; format: ADME, Microsome
[4] = target: T3, Aryl hydrocarbon receptor (Homo sapiens, UniProt P35869); test: Agonist activity at aryl hydrocarbon receptor (unknown origin) expressed in HEK293T cells assessed as luciferase activity at 10 uM measured after 24 hrs; format: toxicity, cell-based
T3 sequence (P35869 whole entry): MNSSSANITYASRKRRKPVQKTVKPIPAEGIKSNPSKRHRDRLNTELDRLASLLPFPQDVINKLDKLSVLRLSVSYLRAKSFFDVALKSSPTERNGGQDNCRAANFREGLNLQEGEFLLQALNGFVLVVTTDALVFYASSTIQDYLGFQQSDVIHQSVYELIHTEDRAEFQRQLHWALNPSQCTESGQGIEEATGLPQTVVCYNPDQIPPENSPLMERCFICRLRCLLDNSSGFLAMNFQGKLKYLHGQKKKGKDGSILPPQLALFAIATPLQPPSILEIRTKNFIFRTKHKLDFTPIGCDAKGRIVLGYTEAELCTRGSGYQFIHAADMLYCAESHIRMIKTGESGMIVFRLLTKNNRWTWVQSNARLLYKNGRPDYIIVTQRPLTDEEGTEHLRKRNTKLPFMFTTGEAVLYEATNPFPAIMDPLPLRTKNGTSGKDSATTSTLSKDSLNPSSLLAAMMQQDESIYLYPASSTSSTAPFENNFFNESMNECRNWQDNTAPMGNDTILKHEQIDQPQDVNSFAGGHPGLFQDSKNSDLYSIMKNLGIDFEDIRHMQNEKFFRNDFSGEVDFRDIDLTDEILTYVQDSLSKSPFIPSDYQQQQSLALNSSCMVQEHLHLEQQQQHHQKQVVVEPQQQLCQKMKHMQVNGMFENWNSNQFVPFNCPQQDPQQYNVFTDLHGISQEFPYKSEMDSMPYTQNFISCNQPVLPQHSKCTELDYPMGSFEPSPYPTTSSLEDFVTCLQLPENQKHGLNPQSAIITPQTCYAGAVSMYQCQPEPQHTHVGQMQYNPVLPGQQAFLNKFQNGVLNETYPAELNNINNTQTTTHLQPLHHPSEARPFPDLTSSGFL

[5] = target: T3, Aryl hydrocarbon receptor; test: Antagonist activity at aryl hydrocarbon receptor (unknown origin) expressed in HEK293T cells assessed as luciferase activity at 10 uM measured after 24 hrs; format: toxicity, cell-based
Cytochrome P450 1A2 [6] = target: T1, Cytochrome P450 1A2; test: Inhibition of human CYP1A2 in human liver microsomes by LC-MS/MS analysis; format: ADME, Microsome
Cytochrome P450 2A6 = target: T4, Cytochrome P450 2A6 (Homo sapiens, UniProt P11509); test: Inhibition of human CYP2A6 in human liver microsomes by LC-MS/MS analysis; format: ADME, Microsome
T4 sequence (P11509 whole entry): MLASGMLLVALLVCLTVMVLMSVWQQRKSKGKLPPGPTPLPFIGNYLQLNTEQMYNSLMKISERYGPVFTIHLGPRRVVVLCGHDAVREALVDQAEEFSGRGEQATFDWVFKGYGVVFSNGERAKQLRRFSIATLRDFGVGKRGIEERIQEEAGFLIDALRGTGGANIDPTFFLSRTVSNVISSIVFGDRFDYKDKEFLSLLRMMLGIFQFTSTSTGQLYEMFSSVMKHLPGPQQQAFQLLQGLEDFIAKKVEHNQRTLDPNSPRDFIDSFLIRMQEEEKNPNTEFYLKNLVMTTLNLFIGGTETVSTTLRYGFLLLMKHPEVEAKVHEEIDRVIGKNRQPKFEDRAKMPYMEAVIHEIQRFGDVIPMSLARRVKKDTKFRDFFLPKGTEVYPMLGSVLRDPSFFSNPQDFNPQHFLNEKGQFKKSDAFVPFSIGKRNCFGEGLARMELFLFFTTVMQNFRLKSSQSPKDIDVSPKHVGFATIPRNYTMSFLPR

Cytochrome P450 2C8 = target: T5, Cytochrome P450 2C8 (Homo sapiens, UniProt P10632); test: Inhibition of human CYP2C8 in human liver microsomes by LC-MS/MS analysis; format: ADME, Microsome
T5 sequence (P10632 whole entry): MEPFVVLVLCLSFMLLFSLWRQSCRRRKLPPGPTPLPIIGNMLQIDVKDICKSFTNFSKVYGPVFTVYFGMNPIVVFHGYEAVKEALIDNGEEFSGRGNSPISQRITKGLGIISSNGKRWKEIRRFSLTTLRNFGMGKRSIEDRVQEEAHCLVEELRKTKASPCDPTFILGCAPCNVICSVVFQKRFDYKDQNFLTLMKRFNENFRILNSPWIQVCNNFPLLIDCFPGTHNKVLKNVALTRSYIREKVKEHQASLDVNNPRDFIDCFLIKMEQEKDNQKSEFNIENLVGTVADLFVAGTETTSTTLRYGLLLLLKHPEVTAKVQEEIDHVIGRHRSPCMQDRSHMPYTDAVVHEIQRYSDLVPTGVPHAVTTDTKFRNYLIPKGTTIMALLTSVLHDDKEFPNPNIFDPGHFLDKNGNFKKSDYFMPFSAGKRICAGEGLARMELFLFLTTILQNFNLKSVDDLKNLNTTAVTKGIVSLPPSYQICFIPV

Cytochrome P450 2C9 = Cytochrome P450 2C9 (Homo sapiens, UniProt P11712); test: Inhibition of human CYP2C9 in human liver microsomes by LC-MS/MS analysis; format: ADME, Microsome
Cytochrome P450 2C19 = Cytochrome P450 2C19 (Homo sapiens, UniProt P33261); test: Inhibition of human CYP2C19 in human liver microsomes by LC-MS/MS analysis; format: ADME, Microsome
Cytochrome P450 2D6 = Cytochrome P450 2D6 (Homo sapiens, UniProt P10635); test: Inhibition of human CYP2D6 in human liver microsomes by LC-MS/MS analysis; format: ADME, Microsome
Cytochrome P450 2E1 = Cytochrome P450 2E1 (Homo sapiens, UniProt P05181); test: Inhibition of human CYP2E1 in human liver microsomes by LC-MS/MS analysis; format: ADME, Microsome
Cytochrome P450 3A4 = Cytochrome P450 3A4 (Homo sapiens, UniProt P08684); test: Inhibition of human CYP3A4 measured after 3 mins incubation by fluorescence assay; format: ADME
Chain of Cytochrome P450 3A4 (P08684 whole entry): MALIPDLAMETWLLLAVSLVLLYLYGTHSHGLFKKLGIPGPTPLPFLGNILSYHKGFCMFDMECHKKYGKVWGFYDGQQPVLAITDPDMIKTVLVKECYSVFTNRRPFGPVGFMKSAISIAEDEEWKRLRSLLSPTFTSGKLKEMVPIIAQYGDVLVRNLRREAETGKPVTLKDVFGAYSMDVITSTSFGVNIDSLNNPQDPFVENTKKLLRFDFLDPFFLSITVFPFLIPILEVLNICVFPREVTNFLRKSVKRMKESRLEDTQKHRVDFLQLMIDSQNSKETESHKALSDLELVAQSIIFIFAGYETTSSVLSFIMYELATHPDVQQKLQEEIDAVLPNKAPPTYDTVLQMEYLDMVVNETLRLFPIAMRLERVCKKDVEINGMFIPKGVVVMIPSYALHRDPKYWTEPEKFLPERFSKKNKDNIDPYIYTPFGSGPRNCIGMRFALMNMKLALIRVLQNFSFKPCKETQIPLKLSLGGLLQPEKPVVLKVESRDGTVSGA

Chain of Cytochrome P450 2C19 (P33261 whole entry): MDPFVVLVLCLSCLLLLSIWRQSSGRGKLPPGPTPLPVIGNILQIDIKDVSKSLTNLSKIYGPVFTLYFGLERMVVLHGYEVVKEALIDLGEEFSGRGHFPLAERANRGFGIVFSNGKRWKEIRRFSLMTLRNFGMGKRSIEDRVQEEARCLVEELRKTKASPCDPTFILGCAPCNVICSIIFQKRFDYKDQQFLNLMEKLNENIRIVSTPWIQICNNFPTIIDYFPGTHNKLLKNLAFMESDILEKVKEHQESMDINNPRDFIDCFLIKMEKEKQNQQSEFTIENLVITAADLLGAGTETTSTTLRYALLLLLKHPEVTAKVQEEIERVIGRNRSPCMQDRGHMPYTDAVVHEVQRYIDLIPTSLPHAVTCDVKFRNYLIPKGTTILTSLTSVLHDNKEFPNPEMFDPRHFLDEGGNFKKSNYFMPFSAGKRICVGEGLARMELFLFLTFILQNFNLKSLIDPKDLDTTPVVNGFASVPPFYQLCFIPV
Chain of Cytochrome P450 2E1 (P05181 whole entry): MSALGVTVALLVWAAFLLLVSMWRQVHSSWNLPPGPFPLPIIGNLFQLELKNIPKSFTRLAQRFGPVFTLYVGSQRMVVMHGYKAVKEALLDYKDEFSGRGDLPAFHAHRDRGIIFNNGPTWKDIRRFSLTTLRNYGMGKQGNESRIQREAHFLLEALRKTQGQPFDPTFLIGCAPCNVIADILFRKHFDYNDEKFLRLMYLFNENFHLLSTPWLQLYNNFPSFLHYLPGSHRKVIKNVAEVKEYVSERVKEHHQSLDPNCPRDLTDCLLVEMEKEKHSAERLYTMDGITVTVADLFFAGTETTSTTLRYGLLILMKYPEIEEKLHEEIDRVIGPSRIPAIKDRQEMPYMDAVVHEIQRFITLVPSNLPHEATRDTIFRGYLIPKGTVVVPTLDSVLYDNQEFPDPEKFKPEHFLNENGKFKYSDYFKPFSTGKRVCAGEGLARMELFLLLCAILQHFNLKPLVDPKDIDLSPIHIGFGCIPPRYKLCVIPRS
Chain of Cytochrome P450 2D6 (P10635 whole entry): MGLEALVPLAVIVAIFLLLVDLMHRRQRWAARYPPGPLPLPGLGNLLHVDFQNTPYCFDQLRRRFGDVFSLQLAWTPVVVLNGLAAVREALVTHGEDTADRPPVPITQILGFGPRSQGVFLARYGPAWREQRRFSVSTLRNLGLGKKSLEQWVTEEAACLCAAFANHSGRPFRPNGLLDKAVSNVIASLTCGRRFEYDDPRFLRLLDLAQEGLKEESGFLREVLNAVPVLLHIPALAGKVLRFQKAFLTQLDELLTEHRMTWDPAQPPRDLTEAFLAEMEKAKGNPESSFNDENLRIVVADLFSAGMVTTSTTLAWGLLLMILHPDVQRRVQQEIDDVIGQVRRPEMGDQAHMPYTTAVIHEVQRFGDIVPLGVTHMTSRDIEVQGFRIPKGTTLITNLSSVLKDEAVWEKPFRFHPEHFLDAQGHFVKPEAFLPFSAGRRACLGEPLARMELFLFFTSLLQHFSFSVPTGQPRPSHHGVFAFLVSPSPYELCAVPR
Chain of Cytochrome P450 2C9 (P11712 whole entry): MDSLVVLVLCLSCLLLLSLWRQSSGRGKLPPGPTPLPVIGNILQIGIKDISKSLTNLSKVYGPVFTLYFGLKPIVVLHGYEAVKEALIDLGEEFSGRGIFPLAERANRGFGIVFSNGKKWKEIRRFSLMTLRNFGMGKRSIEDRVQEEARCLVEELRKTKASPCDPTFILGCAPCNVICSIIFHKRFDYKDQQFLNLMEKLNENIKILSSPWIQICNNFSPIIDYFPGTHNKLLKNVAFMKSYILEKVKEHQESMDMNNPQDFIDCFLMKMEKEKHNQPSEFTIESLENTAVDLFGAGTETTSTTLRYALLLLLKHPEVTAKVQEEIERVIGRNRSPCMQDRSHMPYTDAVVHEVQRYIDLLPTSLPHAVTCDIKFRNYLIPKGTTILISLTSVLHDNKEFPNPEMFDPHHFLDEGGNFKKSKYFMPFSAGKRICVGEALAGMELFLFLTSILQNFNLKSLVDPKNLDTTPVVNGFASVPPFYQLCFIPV

Compound	IC50 (Cytochrome P450 1A2 [1]) [µM]	IC50 (Cytochrome P450 1B1) [µM]	other results
CCCOc1ccc(/C=C/C(=O)c2ccc(C(F)(F)F)cc2)c(OC)c1	> 100	–	–
O=C(/C=C/c1ccccc1)c1ccc(Br)cc1	–	0.036	–
O=C(/C=C/c1ccccc1)c1ccc([N+](=O)[O-])cc1	–	0.28	–
COc1cc(OC(=O)c2cccs2)ccc1/C=C/C(=O)c1ccc(C(F)(F)F)cc1	> 100	–	–
COc1ccc(C(=O)/C=C/c2ccccc2)cc1 [4'-METHOXYCHALCONE]	–	0.18	–
O=C(/C=C/c1ccccc1)c1ccc(O)cc1 [4'-HYDROXYCHALCONE]	–	1.13	–
COc1cc(OC)c(/C=C/C(=O)c2ccc(C(F)(F)F)cc2)cc1Br	> 100	–	–
C[C@]12CC[C@H]3[C@@H](CCC4=CC(=O)CC[C@@]43C)[C@@H]1CC[C@@H]2O [TESTOSTERONE]	–	–	remaining at 1 h [2]: 43.7%; half-life [3]: 0.97 h
CCOc1ccc(/C=C/C(=O)c2ccc(C(F)(F)F)cc2)c(OC)c1	> 100	–	Activity [4]: Active
O=C(/C=C/c1ccc(F)cc1F)c1ccc(C(F)(F)F)cc1	> 100	–	–
Cc1ccc(/C=C/C(=O)c2ccc(C(F)(F)F)cc2)c(C)c1	> 100	–	–
COc1cc(OC)c(/C=C/C(=O)c2ccc(C(F)(F)F)cc2)cc1Cl	> 100	–	Activity [5]: Active; remaining at 1 h [2]: 54.5%; half-life [3]: 1.07 h; IC50 (Cytochrome P450 1A2 [6]): > 100 µM; IC50 (Cytochrome P450 2A6): > 100 µM; IC50 (Cytochrome P450 2C8): > 100 µM; IC50 (Cytochrome P450 2C9): > 100 µM; IC50 (Cytochrome P450 2C19): > 100 µM; IC50 (Cytochrome P450 2D6): > 100 µM; IC50 (Cytochrome P450 2E1): > 100 µM; IC50 (Cytochrome P450 3A4): > 100 µM
CN(C)c1ccc(C(=O)/C=C/c2ccccc2)cc1	–	0.11	–
CCCOc1ccc(/C=C/C(=O)c2ccc(C(F)(F)F)cc2)cc1	> 100	–	–
COc1cc(O)c(Br)cc1/C=C/C(=O)c1ccc(C(F)(F)F)cc1	> 100	–	–
